System: E2F tumour cell line (E2F4 tumour cells)
Assay type: cell-based
Conditions: 24 hours; 33 μM peptide, 33 μM etoposide
Experimental: After 24 hours random regions of the culture dish were examined and the percentage of nonviable cells determined by counting cells with an abnormal morphology.
At 24 hours post treatment cellular morphology was noted and those with a rounded abnormal appearance were scored as dead.
Cells were cultured as above.

COc1cc([C@@H]2c3cc4c(cc3[C@@H](O[C@@H]3O[C@@H]5CO[C@@H](C)O[C@H]5[C@H](O)[C@H]3O)[C@H]3COC(=O)[C@H]23)OCO4)cc(OC)c1O [etoposide]
cell death (cells with rounded abnormal appearance scored as dead): approximately 15%
